Counter-ions that a name gives are not always drawn. Like-named read-outs stand apart in the source and are kept apart here.
Key:
Assay in all cases: AK assay 384-well format, Prestwick library screening
E. faecium = format: cell-based, Enterococcus faecium; conditions: for fold induction at 50 µM: Enterococcus faecium, 3 h
[1] = test system: S. aureus strain USA300-0114; format: cell-based, Staphylococcus aureus; conditions: for fold induction at 50 µM: Staphylococcus aureus, USA300, 3 h
[2] = test system: A. baumannii strain 98-37-09; format: cell-based, Acinetobacter baumannii; conditions: for fold induction at 50 µM: Acinetobacter baumannii, 983709, 3 h
K. pneumoniae = format: cell-based, Klebsiella pneumoniae; conditions: for fold induction at 50 µM: Klebsiella pneumoniae, 3 h
E. cloacae = format: cell-based, Enterobacter cloacae; conditions: for fold induction at 50 µM: Enterobacter cloacae, 3 h
P. aeruginosa = format: cell-based, Pseudomonas aeruginosa; conditions: for fold induction at 50 µM: Pseudomonas aeruginosa, 3 h
E. coli = format: cell-based, Escherichia coli; conditions: for fold induction at 50 µM: Escherichia coli, 3 h
[3] = planktonic E. faecium, 50 μM final drug concentration, 384-well, cutoff for positive-scoring molecules 3-fold increase, read-out: AK-based Prestwick Library Screening Results: E. faecium (increase in extracellular AK activity)
[4] = planktonic S. aureus, 50 μM final drug concentration, 384-well, cutoff for positive-scoring molecules 3-fold increase, read-out: AK-based Prestwick Library Screening Results: S. aureus (increase in extracellular AK activity)
[5] = planktonic A. baumannii, 50 μM final drug concentration, 384-well, cutoff for positive-scoring molecules 3-fold increase, read-out: AK-based Prestwick Library Screening Results: A. baumannii (increase in extracellular AK activity)
[6] = planktonic K. pneumoniae, 50 μM final drug concentration, 384-well, cutoff for positive-scoring molecules 3-fold increase, read-out: AK-based Prestwick Library Screening Results: K. pneumoniae (increase in extracellular AK activity)
[7] = planktonic E. cloacae, 50 μM final drug concentration, 384-well, cutoff for positive-scoring molecules 3-fold increase, read-out: AK-based Prestwick Library Screening Results: E. cloacae (increase in extracellular AK activity)
[8] = planktonic P. aeruginosa, 50 μM final drug concentration, 384-well, cutoff for positive-scoring molecules 3-fold increase, read-out: AK-based Prestwick Library Screening Results: P. aeruginosa (increase in extracellular AK activity)
[9] = planktonic E. coli, 50 μM final drug concentration, 384-well, cutoff for positive-scoring molecules 3-fold increase, read-out: AK-based Prestwick Library Screening Results: E. coli (increase in extracellular AK activity)

CSc1ccc2c(c1)N(CCC1CCCCN1C)c1ccccc1S2 (stereo not drawn) [Thioridazine hydrochloride]
fold induction at 50 µM (E. faecium; [3]): 1 | fold induction at 50 µM [1, 4]: 1.3 | fold induction at 50 µM [2, 5]: 2.9 | fold induction at 50 µM (K. pneumoniae; [6]): 1.3 | fold induction at 50 µM (E. cloacae; [7]): 1.5 | fold induction at 50 µM (P. aeruginosa; [8]): 1.1 | fold induction at 50 µM (E. coli; [9]): 1.6

O=C(O)CNC(=O)C(CS)Cc1ccccc1 (stereo not drawn) [Thiorphan]
fold induction at 50 µM (E. faecium; read-out: AK-based Prestwick Library Screening Results, E. faecium (fold increase in extracellular AK activity)): 1 | fold induction at 50 µM ([1]; read-out: AK-based Prestwick Library Screening Results, S. aureus (fold increase in extracellular AK activity)): 1.3 | fold induction at 50 µM ([2]; read-out: AK-based Prestwick Library Screening Results, A. baumannii (fold increase in extracellular AK activity)): 1.2 | fold induction at 50 µM (K. pneumoniae; read-out: AK-based Prestwick Library Screening Results, K. pneumoniae (fold increase in extracellular AK activity)): 1.3 | fold induction at 50 µM (E. cloacae; read-out: AK-based Prestwick Library Screening Results, E. cloacae (fold increase in extracellular AK activity)): 1.5 | fold induction at 50 µM (P. aeruginosa; read-out: AK-based Prestwick Library Screening Results, P. aeruginosa (fold increase in extracellular AK activity)): 1.2 | fold induction at 50 µM (E. coli; read-out: AK-based Prestwick Library Screening Results, E. coli (fold increase in extracellular AK activity)): 1.2

C=C(NC(=O)C(=C)NC(=O)c1csc(C2=N[C@@H]3c4csc(n4)[C@H]4NC(=O)c5csc(n5)[C@H]([C@](C)(O)[C@@H](C)O)NC(=O)[C@H]5CSC(=N5)/C(=C/C)NC(=O)[C@H]([C@@H](C)O)NC(=O)c5csc(n5)[C@]3(CC2)NC(=O)[C@H](C)NC(=O)C(=C)NC(=O)[C@H](C)NC(=O)[C@H]([C@@H](C)CC)N[C@@H]2C=Cc3c([C@H](C)O)cc(nc3[C@H]2O)C(=O)O[C@@H]4C)n1)C(N)=O [Thiostrepton]
fold induction at 50 µM (E. faecium; 50 μM final drug concentration, planktonic, […], read-out: AK-based Prestwick Library Screening Results, E. faecium (fold increase in extracellular AK activity)): 1 | fold induction at 50 µM ([1]; 50 μM final drug concentration, planktonic, […], read-out: AK-based Prestwick Library Screening Results, S. aureus (fold increase in extracellular AK activity)): 0.4 | fold induction at 50 µM ([2]; 50 μM final drug concentration, planktonic, […], read-out: AK-based Prestwick Library Screening Results, A. baumannii (fold increase in extracellular AK activity)): 1.1 | fold induction at 50 µM (K. pneumoniae; 50 μM final drug concentration, planktonic, […], read-out: AK-based Prestwick Library Screening Results, K. pneumoniae (fold increase in extracellular AK activity)): 1 | fold induction at 50 µM (E. cloacae; 50 μM final drug concentration, planktonic, […], read-out: AK-based Prestwick Library Screening Results, E. cloacae (fold increase in extracellular AK activity)): 1.4 | fold induction at 50 µM (P. aeruginosa; 50 μM final drug concentration, planktonic, […], read-out: AK-based Prestwick Library Screening Results, P. aeruginosa (fold increase in extracellular AK activity)): 0.9 | fold induction at 50 µM (E. coli; 50 μM final drug concentration, planktonic, […], read-out: AK-based Prestwick Library Screening Results, E. coli (fold increase in extracellular AK activity)): 1.3

N[C@@H](Cc1cc(I)c(Oc2cc(I)c(O)c(I)c2)c(I)c1)C(=O)O [Thyroxine (L)]
AK-based Prestwick Library Screening Results: E. faecium (increase in extracellular AK activity) (E. faecium; planktonic E. faecium, 50 μM final drug concentration, 384-well, […]): 1.0 | AK-based Prestwick Library Screening Results: S. aureus (increase in extracellular AK activity) ([1]; planktonic S. aureus, 50 μM final drug concentration, 384-well, […]): 0.2 | AK-based Prestwick Library Screening Results: A. baumannii (increase in extracellular AK activity) ([2]; planktonic A. baumannii, 50 μM final drug concentration, 384-well, […]): 0.4 | AK-based Prestwick Library Screening Results: K. pneumoniae (increase in extracellular AK activity) (K. pneumoniae; planktonic K. pneumoniae, 50 μM final drug concentration, 384-well, […]): 0.4 | AK-based Prestwick Library Screening Results: E. cloacae (increase in extracellular AK activity) (E. cloacae; planktonic E. cloacae, 50 μM final drug concentration, 384-well, […]): 0.3 | AK-based Prestwick Library Screening Results: P. aeruginosa (increase in extracellular AK activity) (P. aeruginosa; planktonic P. aeruginosa, 50 μM final drug concentration, 384-well, […]): 0.4 | AK-based Prestwick Library Screening Results: E. coli (increase in extracellular AK activity) (E. coli; planktonic E. coli, 50 μM final drug concentration, 384-well, […]): 0.5

c1ccc2[nH]c(-c3cscn3)nc2c1 [Tiabendazole]
fold induction at 50 µM (E. faecium; 50 μM final drug concentration, planktonic, cutoff for positive 3-fold increase, read-out: AK-based Prestwick Library Screening Results, E. faecium (fold increase in extracellular AK activity)): 0.5 | fold induction at 50 µM ([1]; 50 μM final drug concentration, planktonic, cutoff for positive 3-fold increase, read-out: AK-based Prestwick Library Screening Results, S. aureus (fold increase in extracellular AK activity)): 0.6 | fold induction at 50 µM ([2]; 50 μM final drug concentration, planktonic, cutoff for positive 3-fold increase, read-out: AK-based Prestwick Library Screening Results, A. baumannii (fold increase in extracellular AK activity)): 0.5 | fold induction at 50 µM (K. pneumoniae; 50 μM final drug concentration, planktonic, cutoff for positive 3-fold increase, read-out: AK-based Prestwick Library Screening Results, K. pneumoniae (fold increase in extracellular AK activity)): 0.4 | fold induction at 50 µM (E. cloacae; 50 μM final drug concentration, planktonic, cutoff for positive 3-fold increase, read-out: AK-based Prestwick Library Screening Results, E. cloacae (fold increase in extracellular AK activity)): 1.3 | fold induction at 50 µM (P. aeruginosa; 50 μM final drug concentration, planktonic, cutoff for positive 3-fold increase, read-out: AK-based Prestwick Library Screening Results, P. aeruginosa (fold increase in extracellular AK activity)): 0.6 | fold induction at 50 µM (E. coli; 50 μM final drug concentration, planktonic, cutoff for positive 3-fold increase, read-out: AK-based Prestwick Library Screening Results, E. coli (fold increase in extracellular AK activity)): 0.6

CCN(CC)CCNC(=O)c1cc(S(C)(=O)=O)ccc1OC [Tiapride hydrochloride]
fold induction at 50 µM (E. faecium; [3]): 1.1 | fold induction at 50 µM [1, 4]: 1 | fold induction at 50 µM [2, 5]: 1.1 | fold induction at 50 µM (K. pneumoniae; [6]): 0.9 | fold induction at 50 µM (E. cloacae; [7]): 1.5 | fold induction at 50 µM (P. aeruginosa; [8]): 1.2 | fold induction at 50 µM (E. coli; [9]): 1.4

CC(C(=O)O)c1ccc(C(=O)c2ccccc2)s1 (stereo not drawn) [Tiaprofenic acid]
fold induction at 50 µM (E. faecium; planktonic E. faecium, 50 μM final drug concentration, cutoff for positive-scoring molecules 3-fold increase, read-out: AK-based Prestwick Library Screening Results, E. faecium (increase in extracellular AK activity)): 0.8 | fold induction at 50 µM ([1]; planktonic S. aureus, 50 μM final drug concentration, cutoff for positive-scoring molecules 3-fold increase, read-out: AK-based Prestwick Library Screening Results, S. aureus (increase in extracellular AK activity)): 0.5 | fold induction at 50 µM ([2]; planktonic A. baumannii, 50 μM final drug concentration, cutoff for positive-scoring molecules 3-fold increase, read-out: AK-based Prestwick Library Screening Results, A. baumannii (increase in extracellular AK activity)): 0.7 | fold induction at 50 µM (K. pneumoniae; planktonic K. pneumoniae, 50 μM final drug concentration, cutoff for positive-scoring molecules 3-fold increase, read-out: AK-based Prestwick Library Screening Results, K. pneumoniae (increase in extracellular AK activity)): 0.5 | fold induction at 50 µM (E. cloacae; planktonic E. cloacae, 50 μM final drug concentration, cutoff for positive-scoring molecules 3-fold increase, read-out: AK-based Prestwick Library Screening Results, E. cloacae (increase in extracellular AK activity)): 0.8 | fold induction at 50 µM (P. aeruginosa; planktonic P. aeruginosa, 50 μM final drug concentration, cutoff for positive-scoring molecules 3-fold increase, read-out: AK-based Prestwick Library Screening Results, P. aeruginosa (increase in extracellular AK activity)): 0.6 | fold induction at 50 µM (E. coli; planktonic E. coli, 50 μM final drug concentration, cutoff for positive-scoring molecules 3-fold increase, read-out: AK-based Prestwick Library Screening Results, E. coli (increase in extracellular AK activity)): 0.6

CC1(C)S[C@@H]2[C@H](NC(=O)[C@H](C(=O)O)c3ccsc3)C(=O)N2[C@H]1C(=O)O [Ticarcillin sodium]
fold induction at 50 µM (E. faecium; planktonic E. faecium, 50 μM final drug concentration, positive cutoff 3-fold increase, read-out: AK-based Prestwick library screening result, E. faecium (fold increase in extracellular AK activity)): 1.2 | fold induction at 50 µM ([1]; planktonic S. aureus, 50 μM final drug concentration, positive cutoff 3-fold increase, read-out: AK-based Prestwick library screening result, S. aureus (fold increase in extracellular AK activity)): 0.7 | fold induction at 50 µM ([2]; planktonic A. baumannii, 50 μM final drug concentration, positive cutoff 3-fold increase, read-out: AK-based Prestwick library screening result, A. baumannii (fold increase in extracellular AK activity)): 2.6 | fold induction at 50 µM (K. pneumoniae; planktonic K. pneumoniae, 50 μM final drug concentration, positive cutoff 3-fold increase, read-out: AK-based Prestwick library screening result, K. pneumoniae (fold increase in extracellular AK activity)): 0.7 | fold induction at 50 µM (E. cloacae; planktonic E. cloacae, 50 μM final drug concentration, positive cutoff 3-fold increase, read-out: AK-based Prestwick library screening result, E. cloacae (fold increase in extracellular AK activity)): 1.4 | fold induction at 50 µM (P. aeruginosa; planktonic P. aeruginosa, 50 μM final drug concentration, positive cutoff 3-fold increase, read-out: AK-based Prestwick library screening result, P. aeruginosa (fold increase in extracellular AK activity)): 0.8 | fold induction at 50 µM (E. coli; planktonic E. coli, 50 μM final drug concentration, positive cutoff 3-fold increase, read-out: AK-based Prestwick library screening result, E. coli (fold increase in extracellular AK activity)): 12.8

CCNC1(c2cccs2)CCCCC1=O.Cl (stereo not drawn) [Tiletamine hydrochloride]
AK-based Prestwick library screening result, E. faecium (fold increase in extracellular AK activity) (E. faecium; planktonic E. faecium, 50 μM final drug concentration, […]): 1.0 | AK-based Prestwick library screening result, S. aureus (fold increase in extracellular AK activity) ([1]; planktonic S. aureus, 50 μM final drug concentration, […]): 1.1 | AK-based Prestwick library screening result, A. baumannii (fold increase in extracellular AK activity) ([2]; planktonic A. baumannii, 50 μM final drug concentration, […]): 1.6 | AK-based Prestwick library screening result, K. pneumoniae (fold increase in extracellular AK activity) (K. pneumoniae; planktonic K. pneumoniae, 50 μM final drug concentration, […]): 1.1 | AK-based Prestwick library screening result, E. cloacae (fold increase in extracellular AK activity) (E. cloacae; planktonic E. cloacae, 50 μM final drug concentration, […]): 1.4 | AK-based Prestwick library screening result, P. aeruginosa (fold increase in extracellular AK activity) (P. aeruginosa; planktonic P. aeruginosa, 50 μM final drug concentration, […]): 1.1 | AK-based Prestwick library screening result, E. coli (fold increase in extracellular AK activity) (E. coli; planktonic E. coli, 50 μM final drug concentration, […]): 1.2
